“And” between values parts separate entries of the source, which are not always exact repeats. Equal values may be shown once. Read-outs that look alike come from different tables or passages of the source.
Key:
IRP2 = test: Western blot of treated 786-0 cells: IRP2; type: cell-based, human
Description: Western blots were performed to determine the effects of the compounds on levels of HIF-2α and other relevant proteins. 786-0 (pVHL deficient clear cell kidney cancer cells) were purchased from ATCC were plated at 1×10E5 cells/well in 2 ml DMEM with 10% FBS/well in 6-well tissue culture plates. Cells were allowed to adhere overnight in a humidified incubator at 37° C. with 5% CO2, after which the appropriate concentrations of compounds in DMSO were added. DMSO concentrations were kept constant in all wells. After 24 hour's exposure to the compounds, cells were lysed and subjected to western blotting according to standard protocols (Polek, Talpaz et al. 2003). Antibodies for HIF-2α and Glyceraldehyde 3-Phosphate Dehydrogenase (GAPDH) were purchased from Cell Signaling Technology (Danvers, Mass.), whereas antibodies to iron responsive element binding protein 2 (IRP2) and Glutathione Peroxidase 4 (GPX4) were from Santa Cruz Biotechnology (Dallas, Tex.) and R&D Systems, Inc (Minneapolis, Minn.). Representative data in FIG. 3 show a dose-dependent effect of compounds in decreasing HIF-2α. Compounds also impact cellular iron sensing given by increased IRP2, which taken together indicate that cells sense decreased amounts of available iron. Representative data shown in FIG. 5 Part C show a dose dependent effect of the compounds on GPX4, which may indicate decreased resistance to ferroptosis.

[1] = Bioavailability determination of KD025HCl in mice (plasma levels after IV or PO); type: in vivo; details: for MRT last: read-out: MRT0-last
Description: To determine the bioavailability KD025HCl, serum concentrations of KD025HCl were determined after varying durations following oral or intravenous (IV) administration. Doses were validated by LC/MS/MS.
For IV administration, 264 μl of N-Methyl-2-Pyrrolidone (NMP) was added to 1.221 mg of KD025HCl, and the solution vortexed and sonicated until complete dissolution. Then, 2.374 ml of 10% (v/v) solutol in water for injection was added, and the solution vortexed, then sonicated with a bath sonicator. The final dosing formulation of a brownish colored clear solution. A single 2 mg/kg dose (5 ml/kg) was administered IV each to nine male Swiss albino mice.
For oral administration (PO), […] of Tween-80 was added to 3.38 mg of KD025HCl, triturated, then 2.893 ml of 0.5% methyl cellulose was added in parts with continuous trituration then vortexed. The final dosing formulation was a brownish colored clear solution. A single 10 mg/kg dose (10 ml/kg) was administered PO each to nine male Swiss albino mice.
Calibration Curve & QC preparation: 2.0 μl of calibration curve standards were added to […] of blank matrix and precipitated with 200 μl of Acetonitrile containing an internal standard at 200 ng/ml. The solution was vortexed for 5 min at 850 rpm, then centrifuged at 4000 rpm for 5 min at 4° C. 110 μl of the supernatant was obtained and diluted with 130 μl of (Methanol:water, 1:1 v/v). Sample Preparation: 50 μl of sample was precipitated with 200 μl of Acetonitrile containing the internal standard at 200 ng/ml. The mixture was vortexed for 5 min at 850 rpm, then centrifuged at 4000 rpm for 5 min at 4° C. 110 μL of supernatant was obtained and diluted with 130 μL of (Methanol:water, 1:1 v/v).
Using this procedure, the plasma levels of KD025HCl after either IV or PO administration was determined, and bioavailability as well as other pharmacokinetic parameters were determined and shown in Table 6.

[2] = IV 2.00 mg/kg, 24.00 h, Swiss albino mice, BLQ: Below limits of quantitation
[3] = IV 2.00 mg/kg, Swiss albino mice, plasma
[4] = male, mouse, IV 2.00 mg/kg, Swiss albino mice, plasma
[5] = male, mouse, PO 10.00 mg/kg, Swiss albino mice, plasma

For COc1ccc(-c2nnc(Nc3nc4c(OC)nccc4[nH]3)o2)cc1OC [KD025HCl, N-(4-Methoxy-1H-imidazo[4,5-c]pyridin-2-yl)-5-(3,4-dimethoxyphenyl)-1,3,4-oxadiazol-2-amine], the “IRP2 protein relative to GAPDH (western blot)” value (IRP2; 786-0 CCRCC cells, 24 hours) was “increases”, the “IRP2 protein (western blot) at higher concentrations” value (IRP2; 786-0 cells, higher concentrations of KD025HCl, FIG. 4 Part D) was “decrease” and the “Plasma concentration, individual animals (M1-, M2-, M3-)” value (“Plasma concentration … (M1-, M2-, M3-)” for short) ([1]; IV 2.00 mg/kg, 0.08 h, Swiss albino mice, 2 mg/kg) was 3949.80 ng/mL and 3776.46 ng/mL. The “Plasma concentration … (M1-, M2-, M3-)” value ([1]; IV 2.00 mg/kg, 0.25 h, Swiss albino mice, 2 mg/kg) was 2069.26 ng/mL and 3078.66 ng/mL, the “Plasma concentration … (M1-, M2-, M3-)” value ([1]; IV 2.00 mg/kg, 0.50 h, Swiss albino mice, 2 mg/kg) was 1527.09 ng/mL and 2079.24 ng/mL and the “Plasma concentration … (M1-, M2-, M3-)” value ([1]; IV 2.00 mg/kg, 1.00 h, Swiss albino mice, 2 mg/kg) was 282.26 ng/mL and 11135.53 ng/mL and 952.05 ng/mL. For the same molecule, the “Plasma concentration … (M1-, M2-, M3-)” value ([1]; IV 2.00 mg/kg, 2.00 h, Swiss albino mice, 2 mg/kg) was 277.23 ng/mL and 334.05 ng/mL and 611.15 ng/mL, the “Plasma concentration … (M1-, M2-, M3-)” value ([1]; IV 2.00 mg/kg, 4.00 h, Swiss albino mice, 2 mg/kg) was 31.51 ng/mL and 45.40 ng/mL and the “Plasma concentration … (M1-, M2-, M3-)” value ([1]; IV 2.00 mg/kg, 8.00 h, Swiss albino mice, 2 mg/kg) was 11.09 ng/mL and 28.55 ng/mL and 16.02 ng/mL. The “Plasma concentration, Mean” value [1, 2] was “BLQ”, the “Plasma concentration … (M1-, M2-, M3-)” value [1, 2] was “BLQ” and the AUCExtra [1, 3] was 1.15%. The Co [1, 3] was 5481.64 ng/mL, the “Plasma concentration … (M1-, M2-, M3-)” value ([1]; PO 10.00 mg/kg, 0.25 h, Swiss albino mice, 10 mg/kg) was 1609.45 ng/mL and 742.75 ng/mL and 1428.60 ng/mL and the “Plasma concentration … (M1-, M2-, M3-)” value ([1]; PO 10.00 mg/kg, 0.50 h, Swiss albino mice, 10 mg/kg) was 1712.09 ng/mL and 2056.44 ng/mL. The “Plasma concentration … (M1-, M2-, M3-)” value ([1]; PO 10.00 mg/kg, 1.00 h, Swiss albino mice, 10 mg/kg) was 784.84 ng/mL and 1081.06 ng/mL, the “Plasma concentration … (M1-, M2-, M3-)” value ([1]; PO 10.00 mg/kg, 2.00 h, Swiss albino mice, 10 mg/kg) was 861.31 ng/mL and 1052.53 ng/mL and the “Plasma concentration … (M1-, M2-, M3-)” value ([1]; PO 10.00 mg/kg, 4.00 h, Swiss albino mice, 10 mg/kg) was 179.52 ng/mL and 94.08 ng/mL and 235.20 ng/mL. For the same molecule, the “Plasma concentration … (M1-, M2-, M3-)” value ([1]; PO 10.00 mg/kg, 6.00 h, Swiss albino mice, 10 mg/kg) was 93.52 ng/mL and 126.29 ng/mL, the “Plasma concentration … (M1-, M2-, M3-)” value ([1]; PO 10.00 mg/kg, 8.00 h, Swiss albino mice, 10 mg/kg) was 50.78 ng/mL and 99.61 ng/mL and the “Plasma concentration, Mean” value ([1]; PO 10.00 mg/kg, 24.00 h, Swiss albino mice, BLQ: Below limits of quantitation) was “BLQ”. For the same molecule, the “Plasma concentration … (M1-, M2-, M3-)” value ([1]; PO 10.00 mg/kg, 24.00 h, Swiss albino mice, BLQ: Below limits of quantitation, 10 mg/kg) was “BLQ”, the AUCExtra ([1]; PO 10.00 mg/kg, Swiss albino mice, plasma) was 9.83% and the concentration at 0.08 h ([1]; male, Swiss albino, mouse, plasma, iv, 2 mg/kg, IV 2.00 mg/kg, 0.08 h, read-out: Plasma concentration, Mean) was 4170 ng/mL. It also gave a concentration at 0.08 h ([1]; male, Swiss albino, mouse, plasma, iv, 2 mg/kg, IV 2.00 mg/kg, 0.08 h, read-out: Plasma concentration, individual animals (M1-, M2-, M3-)) of 4790 ng/mL, a concentration at 0.25 h ([1]; male, Swiss albino, mouse, plasma, iv, 2 mg/kg, IV 2.00 mg/kg, 0.25 h, read-out: Plasma concentration, Mean) of 2340 ng/mL and a concentration at 0.25 h ([1]; male, Swiss albino, mouse, plasma, iv, 2 mg/kg, IV 2.00 mg/kg, 0.25 h, read-out: Plasma concentration, individual animals (M1-, M2-, M3-)) of 1860 ng/mL. For the same molecule, the concentration at 0.5 h ([1]; male, Swiss albino, mouse, plasma, iv, 2 mg/kg, IV 2.00 mg/kg, 0.50 h, read-out: Plasma concentration, Mean) was 1700 ng/mL, the concentration at 0.5 h ([1]; male, Swiss albino, mouse, plasma, iv, 2 mg/kg, IV 2.00 mg/kg, 0.50 h, read-out: Plasma concentration, individual animals (M1-, M2-, M3-)) was 1480 ng/mL and the concentration at 1 h ([1]; male, Swiss albino, mouse, plasma, iv, 2 mg/kg, IV 2.00 mg/kg, 1.00 h, read-out: Plasma concentration, Mean) was 790 ng/mL. The concentration at 2 h ([1]; male, Swiss albino, mouse, plasma, iv, 2 mg/kg, IV 2.00 mg/kg, 2.00 h, read-out: Plasma concentration, Mean) was 407 ng/mL, the concentration at 4 h ([1]; male, Swiss albino, mouse, plasma, iv, 2 mg/kg, IV 2.00 mg/kg, 4.00 h, read-out: Plasma concentration, Mean) was 38 ng/mL and the concentration at 4 h ([1]; male, Swiss albino, mouse, plasma, iv, 2 mg/kg, IV 2.00 mg/kg, 4.00 h, read-out: Plasma concentration, individual animals (M1-, M2-, M3-)) was 37.2 ng/mL. For the same molecule, the concentration at 8 h ([1]; male, Swiss albino, mouse, plasma, iv, 2 mg/kg, IV 2.00 mg/kg, 8.00 h, read-out: Plasma concentration, Mean) was 18.6 ng/mL, the Vd ([1]; male, Swiss albino, mouse, plasma, iv, 2 mg/kg, IV 2.00 mg/kg, plasma, read-out: Vd) was 1.24 L/kg and the Vd ([1]; male, Swiss albino, mouse, plasma, iv, 2 mg/kg, IV 2.00 mg/kg, plasma, read-out: Vss) was 0.72 L/kg. It also gave a concentration at 0.25 h ([1]; male, Swiss albino, mouse, plasma, po, 10 mg/kg, PO 10.00 mg/kg, 0.25 h, read-out: Plasma concentration, Mean) of 1260 ng/mL, a concentration at 0.5 h ([1]; male, Swiss albino, mouse, plasma, po, 10 mg/kg, PO 10.00 mg/kg, 0.50 h, read-out: Plasma concentration, Mean) of 1910 ng/mL and a concentration at 0.5 h ([1]; male, Swiss albino, mouse, plasma, po, 10 mg/kg, PO 10.00 mg/kg, 0.50 h, read-out: Plasma concentration, individual animals (M1-, M2-, M3-)) of 1970 ng/mL. For the same molecule, the concentration at 1 h ([1]; male, Swiss albino, mouse, plasma, po, 10 mg/kg, PO 10.00 mg/kg, 1.00 h, read-out: Plasma concentration, Mean) was 1140 ng/mL, the concentration at 1 h ([1]; male, Swiss albino, mouse, plasma, po, 10 mg/kg, PO 10.00 mg/kg, 1.00 h, read-out: Plasma concentration, individual animals (M1-, M2-, M3-)) was 1570 ng/mL and the concentration at 2 h ([1]; male, Swiss albino, mouse, plasma, po, 10 mg/kg, PO 10.00 mg/kg, 2.00 h, read-out: Plasma concentration, Mean) was 953 ng/mL. It also gave a concentration at 2 h ([1]; male, Swiss albino, mouse, plasma, po, 10 mg/kg, PO 10.00 mg/kg, 2.00 h, read-out: Plasma concentration, individual animals (M1-, M2-, M3-)) of 945 ng/mL, a concentration at 4 h ([1]; male, Swiss albino, mouse, plasma, po, 10 mg/kg, PO 10.00 mg/kg, 4.00 h, read-out: Plasma concentration, Mean) of 170 ng/mL and a concentration at 6 h ([1]; male, Swiss albino, mouse, plasma, po, 10 mg/kg, PO 10.00 mg/kg, 6.00 h, read-out: Plasma concentration, Mean) of 127 ng/mL. It also gave a concentration at 6 h ([1]; male, Swiss albino, mouse, plasma, po, 10 mg/kg, PO 10.00 mg/kg, 6.00 h, read-out: Plasma concentration, individual animals (M1-, M2-, M3-)) of 160 ng/mL, a concentration at 8 h ([1]; male, Swiss albino, mouse, plasma, po, 10 mg/kg, PO 10.00 mg/kg, 8.00 h, read-out: Plasma concentration, Mean) of 78.6 ng/mL and a concentration at 8 h ([1]; male, Swiss albino, mouse, plasma, po, 10 mg/kg, PO 10.00 mg/kg, 8.00 h, read-out: Plasma concentration, individual animals (M1-, M2-, M3-)) of 85.5 ng/mL. It also gave a concentration at 24 h ([1]; male, Swiss albino, mouse, plasma, po, 10 mg/kg, PO 10.00 mg/kg, 24.00 h, BLQ: Below limits of quantitation, read-out: Plasma concentration, individual animals (M1-, M2-, M3-)) of 1.79 ng/mL, a bioavailability ([1]; male, mouse, plasma, PO 10.00 mg/kg versus IV 2.00 mg/kg, Swiss albino mice, read-out: Bio availability (% f)) of 27.3% and an AUC(0-inf) [1, 4] of 3050 ng·h/mL. It also gave an AUC(0-t) [1, 4] of 3010 ng·h/mL, a clearance [1, 4] of 10.9 mL/min/kg and a half-life [1, 4] of 1.31 h. It also gave an MRT last [1, 4] of 0.99 h, an AUC(0-inf) [1, 5] of 4160 ng·h/mL and an AUC(0-t) [1, 5] of 3750 ng·h/mL. For the same molecule, the Cmax [1, 5] was 1910 ng/mL, the Tmax [1, 5] was 0.5 h and the half-life [1, 5] was 3.61 h. The MRT last [1, 5] was 2.03 h.

— US11447482B1, “Imidazopyridine and oxazolopyridine derivatives and analogs thereof, methods of preparation thereof, methods of HIF-2A pathway inhibition, and induction of ferroptosis” (KUDA Therapeutics, Inc., priority 2019, dated 2022)
